Read-outs that look alike come from different tables or passages of the source.
Columns and labels:
E. Coli GC2847 (TEM-1) = assay: Antimicrobial susceptibility testing, microbroth dilution, piperacillin + inhibitor; format: cell-based; details: piperacillin combined with constant 4 ug/ml of inhibitor; 35° C. for 18 hours
Procedure: (§1) Antimicrobial susceptibility testing. The in vitro activities of the antibiotics were determined by the microbroth dilution method as recommended by the National Committee for Clinical Laboratory Standards (NCCLS). (NCCLS. 2000. Methods for Dilution Antimicrobial Susceptibility Tests for Bacteria That Grow Aerobically; Approved Standards: M7-A5, vol. 19. National Committe for Clinical Laboratory Standards, Villanova, Pa.). Mueller-Hinton II broth (MHBII) (BBL Cockeysville, Md.), was used for the testing procedure. Microtiter plates containing 50 μl per well of two-fold serial dilutions of piperacillin combined with a constant amount (4 ug/ml) of a B-lactamase inhibitor were inoculated with 50 μl of inoculum to yield the appropriate density (10^5 CFU/ml) in 100·I final volume. The plates were incubated for 18-22 hours at 35° C. in ambient air. […] The MIC data obtained by the above said procedure are enlisted in Table 2.

E. Coli GC22033 = assay: as above; format: cell-based; details: piperacillin combined with constant 4 ug/ml of inhibitor; 35° C. for 18 hours
Procedure: as §1

E. Coli GC2920 (IRT-2) = assay: as above; format: cell-based; details: piperacillin combined with constant 4 ug/ml of inhibitor; 35° C. for 18 hours
Procedure: as §1

E. Coli GC2894 (Ampc) = assay: as above; format: cell-based; details: piperacillin combined with constant 4 ug/ml of inhibitor; 35° C. for 18 hours
Procedure: as §1

E. Coli GC2844 = assay: as above; format: cell-based; details: piperacillin combined with constant 4 ug/ml of inhibitor; 35° C. for 18 hours
Procedure: as §1

[1] = test system: P. aeruginos GC1764 (Ampc); assay: as above; format: cell-based; details: piperacillin combined with constant 4 ug/ml of inhibitor; 35° C. for 18 hours
Procedure: (§2) Antimicrobial susceptibility testing. The in vitro activities of the antibiotics were determined by the microbroth dilution method as recommended by the National Committee for Clinical Laboratory Standards (NCCLS). (NCCLS. 2000. Methods for Dilution Antimicrobial Susceptibility Tests for Bacteria That Grow Aerobically; Approved Standards: M7-A5, vol. 19. National Committe for Clinical Laboratory Standards, Villanova, Pa.). Mueller-Hinton II broth (MHBII) (BBL Cockeysville, Md.), was used for the testing procedure. Microtiter plates containing 50 μl per well of two-fold serial dilutions of piperacillin combined with a constant amount (4 ug/ml) of a B-lactamase inhibitor were inoculated with 50 μl of inoculum to yield the appropriate density (10^5 CFU/ml) in 100·I final volume. The plates were incubated for 18-22 hours at 35° C. in ambient air.

E. Cloacae GC1477 (Ampc) = assay: as above; format: cell-based; details: piperacillin combined with constant 4 ug/ml of inhibitor; 35° C. for 18 hours
Procedure: as §2

[2] = test system: S. Marcescens GC1781 Sme-1 + Ampc; assay: as above; format: cell-based; details: piperacillin combined with constant 4 ug/ml of inhibitor; 35° C. for 18 hours
Procedure: as §2

[3] = test system: Clinical isolates that have been adapted to cause infection in mice; assay: In vivo antibacterial protection, 7 day survival of infected mice; design: species or system mice strain CD-1
Source text: In Vivo Antibacterial Protection
Female mice strain CD-1, approximately 18-22 grams, were received from Charles River Laboratories and quarantined 7 days prior to use. In addition, mice may be rendered neutropenic using cytoxan.
Clinical isolates that have been adapted to cause infection in mice, are used in the experiment, including infections with strains of E. coli, K. pneumoniae, M. morganii, E. cloacae, S. marcescens, C. freundii, staphylococci, streptococci, P. aeruginosa and N. gonorrhoeae.
Mice are challenged by injecting 0.5 ml intraperitoneally or 0.05 ml intranasally of a predetermined bacterial inoculum suspended in broth, saline or hog gastric mucin (supplemented with dried bovine hemoglobin for N. gonorrhoeae). […] Antibacterial doses (dose concentration prepared by two fold serial dilutions of the antibiotic) are dissolved or suspended in 0.2% aqueous agar or methocel, phosphate buffered saline or an adjuvant are administered orally, subcutaneously or intravenously in the following manner: • a) Orally or subcutaneously: Dose volume of 0.5 ml administered ½ hr after infection. A second dose may be administered 3 hr. after infection for treatment of infections with more virulent organisms. • b) Intravenously: Dose volume of 0.2 ml, administered ½ hr. after infection. For the treatment of infections with more virulent organisms, more doses, up to 48 hr may be administered. (Intravenous dosing will not exceed 3 doses/24 hr period.) • c) Oral pretreatment: Under special circumstances, the pH of the stomach needs to be adjusted in order to increase the gastric stability of the antibiotic. For this purpose, 0.5 ml of phosphate buffered saline (pH7.8, 0.06M) (or specific approved adjuvant) is administered orally ½ hr after infection, followed 5 minutes later by 0.5 ml of antibiotic (also orally) contained in phosphate buffered saline (pH7.8, 0.06M). Animal Species
A detailed explanation as to the number of animals needed for the determination of in vivo efficacy follows: • A) Novel antibiotics are tested at 5 different dose levels with 5 mice per dose level at each of three routes of administration (oral, subcutaneous and intravenous). […] This would require 25 mice/route with 3 routes/antibiotic or 75 mice per novel compound tested. One to two novel antibiotics will be tested per experiment (75-150 mice) • B) The effectiveness of the new compound must be compared to that of a standard, or antibiotic of known effectiveness. Known or previously tested antibiotics are tested at 5 dose levels with 5 mice per dose level by a single route of administration, for a total of 25 mice/antibiotic. Usually 3-6 antibiotics will be tested per experiment. (75-150 mice). • C) Untreated controls—In each of the above tests, untreated animals are infected with 3 different concentrations of bacterial inoculum with 10 mice per concentration (30 mice total in each and every test). These untreated controls are used to determine and maintain the infection level between 10-100 LD50s as required for test to test comparison and validity. Determination of Protective Effects of Antibacterial Agents:
The protective effects of the antibacterial agent(s) are measured by the survival of the infected untreated as compared to the treated animals. […] A census of survivors is taken twice daily and at that time dead as well as moribund animals are removed. […] The test is performed three times on separate days to provide a statistically valid number of animals and to minimize variation in test results on a day to day and test to test basis.

S. aureus GC2216 = assay: Antimicrobial susceptibility testing, microbroth dilution, piperacillin + inhibitor; format: cell-based; details: piperacillin combined with constant 4 ug/ml of inhibitor; 35° C. for 18 hours
Procedure: as §1

class C enzyme AmpC = class C enzyme AmpC (Enterobacter cloacae, UniProt P05364); assay: biochemical; design: species or system Enterobacter cloaca; details: enzyme 2.1 nM; 10 minutes preincubation at 25° C.; nitrocefin 50 μg/ml; pH 7.0; read-out: IC50 (nM) Class C AmpC
Chain of class C enzyme AmpC (P05364 21-381): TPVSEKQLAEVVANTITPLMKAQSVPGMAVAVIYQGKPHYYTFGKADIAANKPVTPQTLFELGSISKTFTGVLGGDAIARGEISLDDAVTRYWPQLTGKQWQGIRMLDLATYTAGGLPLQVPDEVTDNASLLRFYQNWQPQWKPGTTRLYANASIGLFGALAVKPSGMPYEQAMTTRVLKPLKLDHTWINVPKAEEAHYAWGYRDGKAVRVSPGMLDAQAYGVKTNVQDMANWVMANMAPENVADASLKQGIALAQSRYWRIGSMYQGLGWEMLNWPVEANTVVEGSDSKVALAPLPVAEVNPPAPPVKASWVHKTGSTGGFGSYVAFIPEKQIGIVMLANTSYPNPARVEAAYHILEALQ
Procedure: (§3) IC50 Determination for the Penem Inhibitor
(§4) β-Lactamase inhibitory activity of the penem inhibitors was determined spectrophotometrically as described by Bush et al., [Bush, K., Macalintal, C., Rasmussen, B. A., Lee, V. and Yang, Y. Antimicrobial Agents and Chemotherapy 1993, 37, 851]. Homogeneously purified class A β-lactamases TEM-1 from E. coli and Imi-1 from Enterobacter cloacae, class B enzyme CcrA from Bacteroides fragilis and class C enzyme AmpC from Enterobacter cloaca were employed in the assay. The enzyme concentrations for TEM-1, Imi-1, CcrA and AmpC were 4.3, 7.1, 1.2 and 2.1 nM, respectively. A wide range of inhibitor concentrations were prepared in 50 mM PO4, pH 7.0 to include the possible IC50 values. The substrate used to initiate the enzyme reaction was nitrocefin at 50 μg/ml in the same buffer as the inhibitor. Initially the enzyme and inhibitor (20 μl each) were preincubated for 10 minutes at 25° C. prior to the addition of 160 μl volume of nitrocefin. Initial rates of hydrolysis were monitored for 5 minutes at 495 nm using a Molecular Devices Spectra Max 250 with kinetic protocol of SoftMax Program. Readings from the Spectra Max 250 were exported and transferred to Microsoft Excel. The percent of inhibition of each inhibitor concentration was calculated based on the control enzyme activity. The inhibitor concentration that caused a 50% reduction in the enzymatic activity (IC50) was determined graphically.

[4] = target: class A β-lactamase TEM-1 (Escherichia coli, UniProt P62593); assay: IC50 determination, β-lactamase inhibition (nitrocefin, spectrophotometric); format: biochemical, E. coli; details: enzyme 4.3 nM; 10 minutes preincubation at 25° C.; nitrocefin 50 μg/ml; pH 7.0
Chain of class A β-lactamase TEM-1 (P62593 24-286 limits assumed): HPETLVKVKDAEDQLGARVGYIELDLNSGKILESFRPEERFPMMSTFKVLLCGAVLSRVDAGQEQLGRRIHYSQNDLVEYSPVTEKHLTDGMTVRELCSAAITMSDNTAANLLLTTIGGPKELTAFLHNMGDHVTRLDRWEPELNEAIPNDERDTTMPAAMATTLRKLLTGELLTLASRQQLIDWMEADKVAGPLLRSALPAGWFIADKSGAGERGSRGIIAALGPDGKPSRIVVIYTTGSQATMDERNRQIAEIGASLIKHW
Procedure: as §3, §4

[5] = target: class A β-lactamase Imi-1 (Enterobacter cloacae, UniProt Q46991); assay: as above; format: biochemical; details: enzyme 7.1 nM; 10 minutes preincubation at 25° C.; nitrocefin 50 μg/ml; pH 7.0; read-out: IC50 (nM) Class A Imi
Chain of class A β-lactamase Imi-1 (Q46991 28-292): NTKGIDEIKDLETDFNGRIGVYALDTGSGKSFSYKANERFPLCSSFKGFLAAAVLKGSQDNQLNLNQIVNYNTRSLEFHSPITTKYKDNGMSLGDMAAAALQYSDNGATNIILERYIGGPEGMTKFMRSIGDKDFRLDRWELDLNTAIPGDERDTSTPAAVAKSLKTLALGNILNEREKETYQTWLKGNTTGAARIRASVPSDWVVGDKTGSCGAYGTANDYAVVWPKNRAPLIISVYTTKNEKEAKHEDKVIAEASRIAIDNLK
Procedure: as §3, §4

class B enzyme CcrA = class B enzyme CcrA (Bacteroides fragilis, UniProt P25910); assay: as above; format: biochemical; details: enzyme 1.2 nM; 10 minutes preincubation at 25° C.; nitrocefin 50 μg/ml; pH 7.0; read-out: IC50 (nM) Class B Ccr
Chain of class B enzyme CcrA (P25910 19-249): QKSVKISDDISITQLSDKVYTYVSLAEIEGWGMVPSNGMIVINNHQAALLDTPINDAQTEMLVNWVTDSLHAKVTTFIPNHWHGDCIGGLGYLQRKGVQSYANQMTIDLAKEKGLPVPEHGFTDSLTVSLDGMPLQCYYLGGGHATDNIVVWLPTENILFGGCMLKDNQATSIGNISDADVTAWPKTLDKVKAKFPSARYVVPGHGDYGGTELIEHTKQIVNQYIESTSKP
Procedure: as §3, §4

[6] = Ratio of Piperacillin vs. Inhibitor not given
[7] = Mus musculus, 168 h, Ratio of Piperacillin vs. Inhibitor 4:1, read-out: ED50

Compound | Minimal Inhibitory Concentration E. Coli GC2847 (TEM-1) (E. Coli GC2847 (TEM-1)) | Minimal Inhibitory Concentration E. Coli GC22033 (E. Coli GC22033) | Minimal Inhibitory Concentration E. Coli GC2920 (IRT-2) (E. Coli GC2920 (IRT-2)) | Minimal Inhibitory Concentration E. Coli GC2894 (Ampc) (E. Coli GC2894 (Ampc)) | Minimal Inhibitory Concentration E. Coli GC2844 (E. Coli GC2844) | Minimal Inhibitory Concentration P. aeruginos GC1764 (Ampc) [1] | Minimal Inhibitory Concentration E. Cloacae GC1477 (Ampc) (E. Cloacae GC1477 (Ampc)) | Minimal Inhibitory Concentration S. Marcescens GC1781 Sme-1 + Ampc [2] | ED50 [3, 6] | Minimal Inhibitory Concentration S. aureus GC2216 (S. aureus GC2216) | ED50 ([3]; Ratio of Piperacillin vs. Inhibitor 4:1) | melting point | IC50 (class C enzyme AmpC) | IC50 [4] | IC50 [5] | IC50 (class B enzyme CcrA) | ED50 [3, 7]
CC(=O)N1CCc2sc(/C=C3/C(=O)N4C(C(=O)[O-])=CS[C@H]34)cc2C1.[Na+] (single isomer, unassigned) [Example 34] | 32 µg/mL | 2 µg/mL | 4 µg/mL | 32 µg/mL | 4 µg/mL | 32 µg/mL | >64 µg/mL | 2 µg/mL | 32 mg/kg |  |  |  |  |  |  |  | 
COc1ccc(CN2CCc3sc(/C=C4/C(=O)N5C(C(=O)O)=CS[C@H]45)cc3C2)cc1 [Example 4] | 8 µg/mL | 2 µg/mL | 2 µg/mL | 2 µg/mL | 2 µg/mL | 32 µg/mL | 64 µg/mL | 2 µg/mL |  | 0.50 µg/mL | 32 to 64 mg/kg |  |  |  |  |  | 
O=C(O)C1=CS[C@@H]2/C(=C\c3cc4c(s3)CCN(C(=O)c3cccnc3)C4)C(=O)N12 [Example 22] |  |  |  |  |  |  |  |  |  |  |  | 195 °C | 11 nM | 6.1 nM | 42 nM | 110 nM | 128 mg/kg
O=C(O)C1=CS[C@@H]2/C(=C\c3cc4c(s3)CCN(C(=O)Cc3ccccc3)C4)C(=O)N12 [Example 23] |  |  |  |  |  |  |  |  |  |  |  | 166 to 169 °C | 7.8 nM | 4.6 nM | 40 nM | 140 nM | 128 mg/kg
O=C([O-])C1=CS[C@@H]2/C(=C\c3cc4n(n3)CCCO4)C(=O)N12.[Na+] [Example 36, (5R)(6Z)-6-(6,7-5H-Dihydropyrazolo[5,1-b]oxazin-2-ylmethylene)-7-oxo-4-thia-1-azabicyclo[3.2.0]hept-2-ene-2-carboxylic acid, sodium salt] | 4 µg/mL | 4 µg/mL | 2 µg/mL | 2 µg/mL | 2 µg/mL | 1 µg/mL | 16 µg/mL | 1 µg/mL | 90 mg/kg | 0.06 µg/mL |  |  | 4.5 nM | 6.3 nM | 413 nM | 140 nM | 
